“Also recorded” adds a separate entry of the source. Like-named read-outs stand apart in the source and are kept apart here.
How the values were obtained:
dopamine D2 receptor = biological target: T1, dopamine D2 receptor (Rattus norvegicus, UniProt P61169); assay: D-2 binding, 3H-spiroperidol, homogenized limbic brain tissue
T1 construct: from tissue; host or cells: homogenized limbic brain tissue
Protocol: Modest affinity for the dopamine D2 receptor was established by the standard experimental test procedure of Fields, et al., Brain Res., 136, 578 (1977) and Yamamura et al., eds., Neurotransmitter Receptor Binding, Raven Press, N.Y. (1978) wherein homogenized limbic brain tissue is incubated with ^3 H-spiroperidol and various concentrations of test compound, filtered and washed and shaken with Hydrofluor scintillation cocktail (National Diagnostics) and counted in a Packard 460 CD scintillation counter.

[1] = biological target: T2, serotonin 5-HT1A receptor (Rattus norvegicus, UniProt P19327); assay: 5-HT1A binding, displacement of [3H] 8-OHDPAT
T2 construct: following the procedure of Hall et al., J. Neurochem; 44, 1685 (1985); from tissue
T2 sequence (P19327 1-422): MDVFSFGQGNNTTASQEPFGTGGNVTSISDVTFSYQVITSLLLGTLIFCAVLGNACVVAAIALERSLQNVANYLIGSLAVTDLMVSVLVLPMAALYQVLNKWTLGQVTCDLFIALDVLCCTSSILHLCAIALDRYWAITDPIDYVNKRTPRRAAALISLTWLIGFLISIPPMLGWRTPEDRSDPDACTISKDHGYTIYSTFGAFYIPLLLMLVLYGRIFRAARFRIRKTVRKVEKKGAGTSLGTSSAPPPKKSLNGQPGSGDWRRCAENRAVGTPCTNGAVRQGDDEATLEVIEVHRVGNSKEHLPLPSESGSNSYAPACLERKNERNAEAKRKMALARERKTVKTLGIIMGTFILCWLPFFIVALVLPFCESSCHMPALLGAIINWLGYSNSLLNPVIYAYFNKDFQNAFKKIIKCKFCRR
Excerpt: High affinity for the serotonin 5-HT1A receptor was established by testing the claimed compound's ability to displace [^3 H] 8-OHDPAT (dipropylaminotetralin) from the 5-HT1A serotonin receptor following the procedure of Hall et al., J. Neurochem. 44, 1685 (1985). […] The anxiolytic activity of buspirone is believed to be, at least partially, due to its 5-HT1A receptor affinity (Vander Maclen et al., Eur. J. Pharmacol. 1986, 129 (1-2) 133-130).

5-HT1A receptor = settings: cited from earlier work
serotonin syndrome = assay: ability to produce or antagonize the serotonin syndrome in rats; format: in vivo, male Sprague-Dawley CD rats; settings: for ED50: Rattus norvegicus
Protocol: Certain of the compounds of this invention were also compared to buspirone in their ability to either produce or antagonize the serotonin syndrome according to the procedure of Smith and Peroutka, Pharmacol. Biochem. Behav. 24:1513-1519, 1986, in which 250-350 g male Sprague-Dawley CD rats (Charles River) are given either test compound or vehicle and placed individually into plexiglass observation cages. Agonist activity of the compound is determined by scoring for the presence of the serotonin syndrome (forepaw treading, head weaving, tremor, hindlimb abduction, flattened body posture, and Straub tail) during the first 15 minutes after compound administration. Antagonist activity is then determined by a challenge with either of the 5-HT1A agonists 5-methoxy-N,N-dimethyltryptamine (5-MeODMT) or 8-hydroxydipropylaminotetralin.

[2] = biological target: T2, serotonin 5-HT1A receptor; settings: buspirone standard; cited from earlier work
[3] = antagonist activity, challenge with 5-MeODMT or 8-hydroxydipropylaminotetralin, agonist not specified for these values, read-out: ED50, antagonize the serotonin syndrome

T1 sequence (P61169 whole entry): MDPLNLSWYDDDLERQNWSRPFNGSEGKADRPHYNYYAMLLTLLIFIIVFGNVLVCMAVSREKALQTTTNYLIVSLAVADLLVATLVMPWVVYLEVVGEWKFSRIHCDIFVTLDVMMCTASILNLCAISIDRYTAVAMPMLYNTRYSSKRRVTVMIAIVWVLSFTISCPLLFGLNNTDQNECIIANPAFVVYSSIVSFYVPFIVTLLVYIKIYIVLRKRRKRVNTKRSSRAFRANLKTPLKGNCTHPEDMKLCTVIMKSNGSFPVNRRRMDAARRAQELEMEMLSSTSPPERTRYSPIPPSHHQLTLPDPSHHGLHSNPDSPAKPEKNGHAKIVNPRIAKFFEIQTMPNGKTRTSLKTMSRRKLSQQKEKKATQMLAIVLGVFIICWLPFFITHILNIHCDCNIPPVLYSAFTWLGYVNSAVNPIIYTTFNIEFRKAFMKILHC

Row | SMILES | inhibition at 0.1 µM [1] [%] | also measured
1 | COc1cccc2cc(CNCCNC(=O)C34CCC(CC3=O)C4(C)C)oc12 (single isomer, unassigned) [Example 5, N-[2-[[(7-Methoxy-2-benzofuranyl)methyl]amino]ethyl]-7,7-dimethyl-2-oxobicyclo[2.2.1]heptane-1-carboxamide] | 87 | inhibition at 1 µM (dopamine D2 receptor): 4%
2 | O=C1CC2(CCCC2)CC(=O)N1CCCCNCC1COc2ccccc2O1 (single isomer, unassigned; (-)) [(-)-MDL 72832] |  | binding at the 5-HT1A receptor site relative to the dextrorotary isomer (5-HT1A receptor; (-)-isomer vs dextrorotary isomer): 32 times
3 | COc1cccc2cc(CNCCN3C(=O)C4C5C=CC(C6C=CC65)C4C3=O)oc12 (stereo not shown) [Example 1, 3a, 4,4a, 6a, 7,7a-Hexahydro-2-[2-[[(7-methoxy-2-benzofuranyl)methyl]amino]ethyl]-4,7-etheno-1H-cyclobut[f]isoindole-1,3(2H)-dione] | 31 | 
4 | COc1cccc2cc(CNCCNC(=O)C34CC5CC(CC(C5)C3)C4)oc12 [Example 2, N-[2-[[(7-Methoxy-2-benzofuranyl)methyl]amino]ethyl]tricyclo[3.3.1.1^3,7]decane-1-carboxamide] | 100 | ED50 (serotonin syndrome; [3]): 11.7 mg/kg; inhibition at 1 µM (dopamine D2 receptor): 29%; IC50 [1]: 0.5 nM
5 | COc1cccc2cc(CNCCN3C(=O)CC4(CCCC4)CC3=O)oc12 [Example 3, 8-[2-[[(7-Methoxy-2-benzofuranyl)methyl]amino]ethyl]-8-azaspiro[4.5]decane-7,9-dione] | 61 | inhibition at 1 µM (dopamine D2 receptor): 72%
6 | COc1cccc2cc(CNCCN3C(=O)C4CC(C3=O)C3C4C4C5CC6C4C6C53)oc12 (stereo not shown) [Example 4, Decahydro-3-[2-[[(7-methoxy-2-benzofuranyl)methyl]amino]ethyl]-1,5-methano-6,7,9-metheno-2H-pentaleno[1,2-d]azepine-2,4(3H)-dione] | 59 | inhibition at 1 µM (dopamine D2 receptor): 49%
7 | COc1cccc2cc(CNCCNC(=O)c3ccc(F)cc3)oc12 [Example 6] | 87 | inhibition at 1 µM (dopamine D2 receptor): 70%
8 | COc1cccc2cc(CNCCNC(=O)C34CC5CC(CC3C5)C4)oc12 [Example 7, N-[2-[[(7-Methoxy-2-benzofuranyl)methyl]amino]ethyl]hexahydro-2,5-methanopentalene-3a(1H)-carboxamide] | 99 | ED50 (serotonin syndrome; [3]): 15.4 mg/kg
9 | COc1cccc2cc(CNCCNC(=O)C3(C)CCCCC3)oc12 [Example 8, N-[2-[[(7-Methoxy-2-benzofuranyl)methyl]amino]ethyl]-1-methyl-1-cyclohexanecarboxamide] | 92 | 
10 | COc1ccc2cc(CNCCNC(=O)C34CC5CC(CC(C5)C3)C4)oc2c1OC [Example 9, N-[2-[[(6,7-Dimethoxy-2-benzofuranyl)methyl]amino]ethyl]tricyclo[3.3.1.1^3,7]decane-1-carboxamide] | 63 | 
11 | COc1cccc2cc(CN(C)CCNC(=O)C34CC5CC(CC(C5)C3)C4)oc12 [Example 10, N-[2-[[(7-Methoxy-2-benzofuranyl)methyl]methylamino]ethyl]tricyclo[3.3.1.1^3,7]decane-1-carboxamide] | 90 | IC50 [1]: 9 nM
12 | COc1cccc2cc(CNCCNC(=O)C(C)(C)C)oc12 [Example 11, N-[2-[[(7-Methoxy-2-benzofuranyl)methyl]amino]ethyl]-2,2-dimethylpropanamid] | 38 | 
13 | O=C(NCCNCc1cc2ccc(OCc3ccccc3)cc2o1)C12CC3CC(CC(C3)C1)C2 [Example 12, N-[2-[[(6-Phenylmethoxy-2-benzofuranyl)methyl]amino]ethyl]tricyclo[3.3.1.1^3,7]decane-1-carboxamide] | 20 | 
14 | O=C(NCCNCc1cc2cccc(F)c2o1)C12CC3CC(CC(C3)C1)C2 [Example 13, N-[2-[[(7-Fluoro-2-benzofuranyl)methyl]amino]ethyl]tricyclo[3.3.1.1^3,7]decane-1-carboxamide] | 95 | 
15 | O=C(NCCNCc1cc2cc(O)ccc2o1)C12CC3CC(CC(C3)C1)C2 [Example 15, N-[2-[[(5-Hydroxy-2-benzofuranyl)methyl]amino]ethyl]tricyclo[3.3.1.1^3,7]decane-1-carboxamide] | 64 | 
16 | O=C(NCCNCc1cc2cccc(Cl)c2o1)C12CC3CC(CC(C3)C1)C2 [Example 16, N-[2-[[(7-Chloro-2-benzofuranyl)methyl]amino]ethyl]tricyclo[3.3.1.1^3,7]decane-1-carboxamide] | 97 | 
17 | O=C(NCCNCc1cc2ccc(O)cc2o1)C12CC3CC(CC(C3)C1)C2 [Example 17, N-[2-[[(6-Hydroxy-2-benzofuranyl)methyl]amino]ethyl]tricyclo[3.3.1.1^3,7]decane-1-carboxamide] | 88 | 
18 | O=C1CC2(CCCC2)CC(=O)N1CCCCNCC1COc2ccccc2O1 (stereo not shown) [MDL 72832, 8-[4-(1,4-benzodioxan-2-ylmethylamino)butyl]-8-azaspiro[4.5]decane-7,9-dione] |  | 5-HT1A receptor ligand character (in words) (5-HT1A receptor): selective and stereospecific
19 | O=C1CC2(CCCC2)CC(=O)N1CCCCN1CCN(c2ncccn2)CC1 [buspirone] |  | ED50 (serotonin syndrome; 0.25 h, agonist activity, first 15 minutes after administration, read-out: ED50, produced the serotonin syndrome): 7.3 mg/kg; ED50 (serotonin syndrome; antagonist activity, challenge with 5-MeODMT, read-out: ED50, antagonized 5-MeODMT-induced syndrome): 4.6 mg/kg; characterization in the serotonin syndrome test (serotonin syndrome; in words): partial agonist; affinity for the serotonin 5-HT1A receptor (in words) [2]: high affinity; also recorded: potent affinity
